These results are taken from ChEMBL document CHEMBL1126000, “Synthesis of 2-substituted-1,3,4-thiadiazole-5-sulphonamides as novel water-soluble inhibitors of carbonic anhydrase” (Bioorg Med Chem Lett, 1991).

SMILES strings stand for the structures. Converted amounts (≈) assume the structure as drawn. “And” between values parts separate entries of the source, which are not always exact repeats. Identical values can stand only once.

Data set [1] can be described thus: Solubility in water, at 20 degrees Centigrade. In kind it is physicochemical.
The target of the next data set is Carbonic anhydrase (Bos taurus, UniProt P00921+Q95323+P18915+Q3SZX4).

Description for Carbonic anhydrase: In vitro concentration that causes 50% inhibition of carbonic anhydrase carbonate hydro-lyase (EC.4.2.1.1) isolated from bovine erythrocyte

`Br.N[C@@H](Cc1ccccc1)C(=O)Nc1nnc(S(N)(=O)=O)s1`: the solubility (usually the dissolved amount per volume that the medium holds) in data set [1] (water, read-out: Solubility) was found to be 132 mM. In addition, the IC50 (in general, the concentration that inhibits the measured activity by half) against Carbonic anhydrase is 30 nM.
On to `CC(=O)Nc1nnc(S(N)(=O)=O)s1` [ACETAZOLAMIDE], for which the solubility in data set [1] (water, read-out: Solubility) was below 0.1 mM.
`NS(=O)(=O)c1nnc(NC(=O)[C@H](Cc2ccccc2)NC(=O)OCc2ccccc2)s1`: the solubility in data set [1] (water, read-out: Solubility) is below 0.1 mM. Also, on Carbonic anhydrase, the half-inhibitory concentration (IC50) turned out to be 5 nM.
For `NS(=O)(=O)c1nnc(NC(=O)CNC(=O)OCc2ccccc2)s1`, the solubility in data set [1] (water, read-out: Solubility) was below 0.1 mM. Moreover, the IC50 on Carbonic anhydrase is 8 nM.
Take `Br.C[C@H](N)C(=O)Nc1nnc(S(N)(=O)=O)s1`: the solubility in data set [1] (water, read-out: Solubility) is 701 mM. This compound also registered an IC50 at Carbonic anhydrase of 9 nM.
`NCCCCC(=O)Nc1nnc(S(N)(=O)=O)s1` came in with a solubility in data set [1] (buffer) of 0.7 mM (≈ 196 µg/mL). For the same compound, the IC50 against Carbonic anhydrase is 440 nM and 370 nM.
As to `CC(C)COC(=O)Nc1nnc(S(N)(=O)=O)s1`, the solubility in data set [1] (water, read-out: Solubility) is 103 mM (≈ 28900 µg/mL). Also, at Carbonic anhydrase, the IC50 was 550 nM and 570 nM.
Turning to `Br.NCC(=O)Nc1nnc(S(N)(=O)=O)s1`, the solubility in data set [1] (water, read-out: Solubility) stood at 896 mM.
Turning to `C[C@H](NC(=O)OCc1ccccc1)C(=O)Nc1nnc(S(N)(=O)=O)s1`, in data set [1] (water, read-out: Solubility), the solubility is below 0.1 mM. Moreover, at Carbonic anhydrase, the IC50 stood at 7 nM.
